Reference: paper PMC11410943 (Nature Communications, 2024)
In brackets after ≈: the same amount, converted by molar mass. Read-outs that look alike come from different tables or passages of the source.

Key:
[1] = system: K. pneumoniae; assay: Neutropenic rat lung infection model; settings: IV infusion, MDR isolates
[2] = Dog pharmacokinetic study; format: in vivo, Beagle dog; settings: dogs
[3] = system: Enterococcus faecalis; assay: MIC; settings: read-out: median MIC
[4] = system: Serratia marcescens; assay: MIC; settings: IHMA/CARB-X MDR clinical isolates 2019, N=45
[5] = system: Acinetobacter baumannii; assay: MIC; settings: Acinetobacter baumannii
[6] = system: MDR Gram-negative and Gram-positive pathogens; assay: MIC
[7] = Dog cardiovascular study; format: in vivo
[8] = system: Stenotrophomonas maltophilia; assay: MIC; settings: IHMA/CARB-X MDR clinical isolates 2019, N=150
[9] = molecular target: P-glycoprotein (P-gp) (Homo sapiens, UniProt P08183); assay: P-gp substrate determination; format: in vitro ADME
[10] = Plasma protein binding, equilibrium dialysis; format: in vitro ADME, rats; settings: % bound
[11] = system: E. coli
[12] = Bile duct cannulation / excretion study in rats; format: in vivo, Sprague-Dawley rats
[13] = Hepatocyte stability / intrinsic clearance; format: in vitro ADME, human
[14] = Rat 14-day GLP toxicology / toxicokinetics; format: in vivo
[15] = system: E. coli; assay: Neutropenic rat lung infection model; format: in vivo; settings: IV infusion, MDR isolates
[16] = system: Enterobacter cloacae; assay: MIC; settings: Enterobacter cloacae
[17] = system: Pseudomonas aeruginosa; assay: MIC; settings: for MIC: Pseudomonas aeruginosa
[18] = Dog 14-day GLP toxicology; format: in vivo
[19] = molecular target: bile salt export pump (BSEP) (Homo sapiens, UniProt O95342); assay: BSEP inhibition and substrate determination; format: in vitro ADME; settings: up to 50 µM
[20] = system: E. coli; assay: Neutropenic mouse; format: in vivo; settings: SC every 8 h, wild-type and MDR isolates
[21] = system: AChE, MAO-B, Adrenergic α1 A, 5-HT1A; assay: Cerep-88 secondary pharmacology screen
[22] = system: Neisseria gonorrhoeae; assay: MIC; settings: IHMA/CARB-X isolates 1997 to 2021, N=90
[23] = system: A. baumannii; assay: Neutropenic mouse; format: in vivo; settings: SC every 8 h, wild-type and MDR isolates
[24] = Hepatocyte stability / intrinsic clearance; format: in vitro ADME, dog
[25] = system: A. baumannii; format: cell-based
[26] = system: other cardiac ion channels; assay: Other cardiac ion channels; format: cell-based
[27] = system: E. cloacae; format: cell-based
[28] = Partitioning into red blood cells; format: in vitro ADME
[29] = MAD study C002-2023-01; format: in vivo, healthy human volunteers; settings: 240 mg, two subjects
[30] = system: P. aeruginosa
[31] = system: A. baumannii; settings: in vivo, iv
[32] = system: P. mirabilis; assay: MIC; settings: Proteus mirabilis, read-out: median MIC
[33] = First-in-human SAD study, PK; format: in vivo, healthy human volunteers; settings: for half-life: both, human, plasma, iv
[34] = system: E. faecalis / E. faecium; assay: MIC
[35] = system: Staphylococcus aureus; assay: MIC
[36] = system: diverse Gram-negative pathogens
[37] = molecular target: acetylcholine esterase (AChE) (Homo sapiens, UniProt P22303); assay: AChE inhibition, reversibility on dilution; format: biochemical; settings: 30 μM, 100-fold dilution to 0.3 μM, excess AChE
[38] = system: Proteus spp.; assay: MIC; settings: IHMA/CARB-X MDR clinical isolates 2019, N=152
[39] = system: Morganella morganii; assay: MIC; settings: IHMA/CARB-X MDR clinical isolates 2019, N=42
[40] = read-out: median MIC, panel of ATCC strains

bile salt export pump (BSEP), sequence (O95342 whole entry, species assumed): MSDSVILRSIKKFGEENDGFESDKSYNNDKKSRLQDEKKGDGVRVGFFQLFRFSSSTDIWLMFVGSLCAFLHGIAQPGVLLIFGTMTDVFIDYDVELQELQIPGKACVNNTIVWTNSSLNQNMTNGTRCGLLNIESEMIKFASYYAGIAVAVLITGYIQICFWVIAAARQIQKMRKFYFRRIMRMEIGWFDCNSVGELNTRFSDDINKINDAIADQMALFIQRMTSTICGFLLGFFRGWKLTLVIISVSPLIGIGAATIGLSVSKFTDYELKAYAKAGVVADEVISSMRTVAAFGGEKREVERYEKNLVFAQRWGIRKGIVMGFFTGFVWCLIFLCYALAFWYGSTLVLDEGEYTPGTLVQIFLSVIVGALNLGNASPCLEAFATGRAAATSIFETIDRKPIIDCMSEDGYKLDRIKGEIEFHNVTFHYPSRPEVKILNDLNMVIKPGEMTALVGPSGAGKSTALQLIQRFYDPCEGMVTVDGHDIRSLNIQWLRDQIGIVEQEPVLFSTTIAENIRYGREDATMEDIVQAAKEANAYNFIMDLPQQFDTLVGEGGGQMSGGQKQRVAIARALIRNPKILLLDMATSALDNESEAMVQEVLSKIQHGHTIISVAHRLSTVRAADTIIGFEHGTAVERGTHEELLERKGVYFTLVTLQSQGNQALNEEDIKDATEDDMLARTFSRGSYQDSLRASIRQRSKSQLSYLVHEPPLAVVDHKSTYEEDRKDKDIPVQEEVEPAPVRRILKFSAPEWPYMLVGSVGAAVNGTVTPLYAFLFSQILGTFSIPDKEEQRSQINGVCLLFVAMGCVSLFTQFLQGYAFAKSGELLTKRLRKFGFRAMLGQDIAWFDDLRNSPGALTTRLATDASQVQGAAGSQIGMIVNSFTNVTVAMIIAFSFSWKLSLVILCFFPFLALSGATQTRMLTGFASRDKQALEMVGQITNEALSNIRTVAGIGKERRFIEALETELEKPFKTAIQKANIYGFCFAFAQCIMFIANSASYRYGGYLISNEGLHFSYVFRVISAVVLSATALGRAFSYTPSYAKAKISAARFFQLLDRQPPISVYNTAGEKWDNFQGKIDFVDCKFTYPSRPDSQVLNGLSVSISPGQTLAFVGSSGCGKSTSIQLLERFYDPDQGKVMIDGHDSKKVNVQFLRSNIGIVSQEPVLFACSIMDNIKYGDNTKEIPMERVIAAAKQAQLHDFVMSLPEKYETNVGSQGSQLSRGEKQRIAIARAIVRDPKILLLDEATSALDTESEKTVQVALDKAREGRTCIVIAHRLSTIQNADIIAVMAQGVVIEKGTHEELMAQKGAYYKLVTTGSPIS
acetylcholine esterase (AChE), sequence (P22303 32-614): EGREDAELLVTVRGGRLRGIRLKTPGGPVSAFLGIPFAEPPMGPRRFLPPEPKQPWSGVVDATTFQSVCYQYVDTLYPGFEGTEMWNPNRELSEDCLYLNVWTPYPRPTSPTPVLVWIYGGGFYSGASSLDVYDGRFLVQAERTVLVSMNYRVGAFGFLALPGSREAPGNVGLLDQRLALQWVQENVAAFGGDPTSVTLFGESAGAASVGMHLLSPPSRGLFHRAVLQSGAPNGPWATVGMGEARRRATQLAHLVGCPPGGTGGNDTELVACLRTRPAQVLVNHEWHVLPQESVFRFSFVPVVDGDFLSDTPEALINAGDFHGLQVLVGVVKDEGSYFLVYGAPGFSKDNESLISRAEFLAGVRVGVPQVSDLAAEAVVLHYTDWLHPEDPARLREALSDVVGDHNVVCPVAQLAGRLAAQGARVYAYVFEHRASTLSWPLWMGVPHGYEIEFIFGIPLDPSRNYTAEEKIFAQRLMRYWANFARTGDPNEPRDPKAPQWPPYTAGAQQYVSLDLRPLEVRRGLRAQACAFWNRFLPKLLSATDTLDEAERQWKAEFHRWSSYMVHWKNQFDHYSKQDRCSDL
P-glycoprotein (P-gp), sequence (P08183 whole entry): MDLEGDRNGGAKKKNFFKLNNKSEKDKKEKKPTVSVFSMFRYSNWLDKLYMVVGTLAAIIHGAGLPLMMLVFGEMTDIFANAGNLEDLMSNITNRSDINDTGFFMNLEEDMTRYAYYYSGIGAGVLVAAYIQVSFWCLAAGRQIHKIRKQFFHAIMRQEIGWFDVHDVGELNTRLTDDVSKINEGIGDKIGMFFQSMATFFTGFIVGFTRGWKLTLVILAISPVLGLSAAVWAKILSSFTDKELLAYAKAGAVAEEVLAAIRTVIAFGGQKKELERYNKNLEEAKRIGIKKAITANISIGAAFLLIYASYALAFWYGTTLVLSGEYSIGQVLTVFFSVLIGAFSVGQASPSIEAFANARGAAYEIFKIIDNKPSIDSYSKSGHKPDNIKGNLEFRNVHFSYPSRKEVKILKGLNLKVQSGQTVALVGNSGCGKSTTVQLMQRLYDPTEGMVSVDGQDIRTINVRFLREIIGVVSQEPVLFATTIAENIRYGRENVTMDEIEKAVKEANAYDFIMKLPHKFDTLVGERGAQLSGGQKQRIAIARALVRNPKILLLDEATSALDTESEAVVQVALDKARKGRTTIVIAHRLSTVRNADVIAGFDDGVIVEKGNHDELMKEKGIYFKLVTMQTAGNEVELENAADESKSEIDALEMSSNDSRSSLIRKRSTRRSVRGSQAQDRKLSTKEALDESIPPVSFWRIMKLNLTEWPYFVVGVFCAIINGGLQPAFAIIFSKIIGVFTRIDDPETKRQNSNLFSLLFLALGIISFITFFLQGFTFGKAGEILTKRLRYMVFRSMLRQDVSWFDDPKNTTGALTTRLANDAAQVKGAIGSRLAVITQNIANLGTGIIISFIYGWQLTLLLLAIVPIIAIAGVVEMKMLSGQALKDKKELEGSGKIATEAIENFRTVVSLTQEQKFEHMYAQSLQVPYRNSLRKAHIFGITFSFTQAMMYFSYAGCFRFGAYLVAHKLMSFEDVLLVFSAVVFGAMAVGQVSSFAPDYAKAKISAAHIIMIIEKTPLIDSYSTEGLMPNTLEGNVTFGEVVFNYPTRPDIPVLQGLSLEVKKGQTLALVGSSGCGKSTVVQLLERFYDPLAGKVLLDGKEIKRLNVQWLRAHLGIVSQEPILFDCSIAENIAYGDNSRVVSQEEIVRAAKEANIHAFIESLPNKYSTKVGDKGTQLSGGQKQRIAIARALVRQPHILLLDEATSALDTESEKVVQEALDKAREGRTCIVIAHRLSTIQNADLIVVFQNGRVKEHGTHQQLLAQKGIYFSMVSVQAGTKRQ

Cn1c(=O)ccc2ccc(F)c(CCNC[C@H]3CN(c4cnc5c(n4)NC(=O)CO5)C(=O)O3)c21 [BWC0977, 6-[(5S)−5-[[[2-(7-Fluoro-1,2-dihydro-1-methyl-2-oxo-8-quinolinyl)ethyl]amino]methyl]−2-oxo-3-oxazolidinyl]−2H-pyrazino[2,3-b]−1,4-oxazin-3(4H)-one]
dose-response efficacy [1]: excellent bactericidal dose-response | unchanged drug excreted in urine [2]: 10% | MIC [3]: 0.06 µg/mL (≈ 0.128 µM) | MIC90 [4]: 1 µg/mL (≈ 2.13 µM) | MIC90 ([5]; IHMA/CARB-X MDR clinical isolates 2019, N=298): 1 µg/mL (≈ 2.13 µM) | MIC [5, 40]: 0.06 µg/mL (≈ 0.128 µM) | MIC90 [6]: 0.03 to 2 µg/mL (≈ 0.064 to 4.27 µM) | increase in QTc ([7]; 1-hour infusion of 30 or 60 mg/kg, within 3−6 h): 4 to 11 ms | heart rate ([7]; 30 and 60 mg/kg): notable increase in heart rate | MIC90 [8]: 0.25 µg/mL (≈ 0.534 µM) | P-gp substrate status [9]: substrate | plasma protein binding [10]: 94% | in vitro resistance frequency [11]: < 1 × 10^−9 | resistance frequency [11]: 4 × 10^−9 | total dose observed unchanged in the bile [12]: about 1.5% | clearance predicted from CLint, % of liver blood flow (LBF) [13]: < 30% | AUC0–24 at NOAEL ([14]; 75 mg/kg/day): 52000 ng·h/mL | NOAEL at 14 day ([14]; in vivo): 75 mg/kg/day | Cmax ([14]; in vivo, 75 mg/kg/day): 26000 ng/mL | AUC(0-t) ([14]; in vivo, 250 mg/kg/day, AUC0–24 at highest dose level): 355000 ng·h/mL | microscopic findings ([14]; up to 250 mg/kg/day): no microscopic findings | dose-response efficacy [15]: excellent bactericidal dose-response | MIC90 ([16]; IHMA/CARB-X MDR clinical isolates 2019, N=152): 2 µg/mL (≈ 4.27 µM) | MIC [16, 40]: 0.06 µg/mL (≈ 0.128 µM) | MIC90 ([17]; IHMA/CARB-X MDR clinical isolates 2019, N=300): 1 µg/mL (≈ 2.13 µM) | MIC ([17]; NCTC13921, P. aeruginosa NCTC 13921): 0.25 µg/mL (≈ 0.534 µM) | MIC [17, 40]: 0.25 µg/mL (≈ 0.534 µM) | microscopic findings ([18]; dose levels above 40 mg/kg/day): Microscopic changes consistent with hepatobiliary toxicity | NOAEL at 14 day ([18]; in vivo): 40 mg/kg/day | AUC(0-t) ([18]; in vivo, 40 mg/kg/day): 90000 ng·h/mL | Cmax ([18]; in vivo, 40 mg/kg/day): 25000 ng/mL | BSEP substrate / inhibitor status [19]: neither a substrate nor an inhibitor | dose-ranging efficacy (bacterial burden) [20]: excellent dose-response | result in Cerep-88 screen [21]: hits | MIC90 [22]: ≤ 0.016 µg/mL | dose-ranging efficacy (bacterial burden) [23]: excellent dose-response | clearance predicted from CLint, % of liver blood flow (LBF) [24]: < 30% | in vitro killing kinetics [25]: significant bactericidal activity | concentration up to which other cardiac ion channels are not inhibited [26]: > 300 µM | in vitro killing kinetics [27]: significant bactericidal activity | partitioning into red blood cells [28]: neither partitions into red blood cells | systemic adverse events [29]: no systemic adverse events | infusion site finding on ultrasound ([29]; 12/14 and 14/14 doses): small non-occlusive thrombus proximal to the infusion site in both volunteers | in vitro resistance frequency [30]: < 1 × 10^−9 | resistance frequency [30]: < 1 × 10^−9 | dose-response efficacy [31]: excellent bactericidal dose-response | MIC [32]: 0.12 µg/mL (≈ 0.256 µM) | VD at steady state (Vss) across the dose levels ([33]; 120-1050 mg): 44.03 to 51.50 L/h | dose proportionality of plasma Cmax and AUC ([33]; 120-1050 mg): increased proportionally with dose | half-life ([33]; 120 mg): 3.3 h | half-life ([33]; 1050 mg): 8.4 h | MIC90 [34]: 0.06 µg/mL (≈ 0.128 µM) | MIC ([35]; Staphylococcus aureus, read-out: median MIC): 0.01 µg/mL (≈ 0.0213 µM) | MIC90 ([35]; global panel, N=560, including MRSA): 0.03 µg/mL (≈ 0.064 µM) | spontaneous resistance frequency [36]: < 10^−9 | reversibility of AChE inhibition [37]: rapidly reversed | MIC90 [38]: 0.5 µg/mL (≈ 1.07 µM) | MIC90 [39]: 1 µg/mL (≈ 2.13 µM) | MIC90 ([39]; Morganella morganii): 1 µg/mL (≈ 2.13 µM)
